Key:
[1] = molecular target: T1, HMG-CoA reductase (rat liver microsomes) (Rattus norvegicus, UniProt P51639); test: Test of activity of inhibiting HMG-CoA reductase (rate of decline of OD340); type: biochemical; details: final concentration in system 80 μg/mL
T1 construct: taking out liver of male rat, washing with KESD buffer solution; from tissue; host or cells: liver of male rat (microsomal fraction, glycerol/37 °C treatment, 35-50% ammonium sulfate fraction)
T1 sequence (P51639 1-887): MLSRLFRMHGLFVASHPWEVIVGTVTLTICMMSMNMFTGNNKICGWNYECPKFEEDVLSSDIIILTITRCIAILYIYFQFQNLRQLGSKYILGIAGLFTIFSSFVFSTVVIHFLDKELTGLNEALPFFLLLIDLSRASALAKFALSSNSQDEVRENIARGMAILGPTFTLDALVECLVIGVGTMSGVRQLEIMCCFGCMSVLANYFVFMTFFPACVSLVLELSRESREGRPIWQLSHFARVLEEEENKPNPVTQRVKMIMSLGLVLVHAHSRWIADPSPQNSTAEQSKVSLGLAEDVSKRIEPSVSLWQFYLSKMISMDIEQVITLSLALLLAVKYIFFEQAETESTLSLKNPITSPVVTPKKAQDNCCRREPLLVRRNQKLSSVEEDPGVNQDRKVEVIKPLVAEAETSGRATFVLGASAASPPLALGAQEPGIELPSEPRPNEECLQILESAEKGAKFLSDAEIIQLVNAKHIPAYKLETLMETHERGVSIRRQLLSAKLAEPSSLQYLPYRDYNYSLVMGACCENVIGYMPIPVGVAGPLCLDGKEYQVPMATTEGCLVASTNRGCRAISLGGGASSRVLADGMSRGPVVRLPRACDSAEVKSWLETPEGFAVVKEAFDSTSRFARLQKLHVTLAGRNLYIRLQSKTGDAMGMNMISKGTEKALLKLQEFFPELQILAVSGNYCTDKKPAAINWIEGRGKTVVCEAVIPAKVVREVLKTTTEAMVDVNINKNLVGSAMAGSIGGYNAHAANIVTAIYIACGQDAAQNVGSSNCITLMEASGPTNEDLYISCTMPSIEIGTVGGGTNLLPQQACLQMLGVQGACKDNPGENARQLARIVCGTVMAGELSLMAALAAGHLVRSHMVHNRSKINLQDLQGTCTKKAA
Description: Rat liver microsomes (HMG-CoA reductase), could be commercially available or prepared by the following preparation method: taking out liver of male rat, washing with KESD buffer solution, centrifuging under 1200 g for 15 minutes, collecting supernatant, then centrifuging under 105,000 g twice, 90 minutes for each time, and collecting centrifugation deposit. The centrifugation deposit was added with 8.3% of glycerol, heated with 37° C. bath for 1 hour. The crude product of rat liver microsomes was purified with saturated ammonium sulfate, and 35-50% of purified fraction was collected. The purified fraction obtained could be stored in −80° C. refrigerator.
Compound of Formula II was dissolved in 75% ethanol solution, with initial concentration of 8.0 mg/mL, and diluted in gradient manner, to reach 4.0 mg/mL, 2.0 mg/mL, 1.0 mg/mL; lovastatin was used as positive control, dissolved with 75% ethanol solution to reach concentration of 2.0 mg/mL; in the test system, total volume was 250 μL, concentrations of ingredients were separately: potassium chloride 200 mM, potassium dihydrogen phosphate 160 mM, ethylenediamine tetraacetic acid 4 mM, dithiothreitol 10 mM, […] and 3-hydroxy-3-methylglutary coenzyme A as two substrates separately had concentrations of: 200 μM and 50 μM, pH6.8, 30 μL of enzyme was added, 4 test groups were separately added with 10 μL of new compound solutions with different concentrations, the positive control group was added with 10 μL of lovastatin solution, the blank control group was added with 10 μL of 75% ethanol solution, and dynamitic changes of OD340 were detected with Versamax ELISA at 37° C. condition. The rate of decline of OD340 (expressed in slope value) as detected within 5 minutes was used to evaluate the activity of HMG-CoA reductase, and then to evaluate the activity of enzyme inhibitor and the results were shown in Table 2.

[2] = molecular target: T2, Porcine pancreatic lipase (Sus scrofa, UniProt P00591); test: Test of activity of inhibiting lipase (copper oleate colorimetry, olive oil substrate); type: biochemical, pig; details: final concentration of inhibitor in the system 1.85 μg/mL
T2 construct: purchased Sigma
T2 sequence (P00591 1-450): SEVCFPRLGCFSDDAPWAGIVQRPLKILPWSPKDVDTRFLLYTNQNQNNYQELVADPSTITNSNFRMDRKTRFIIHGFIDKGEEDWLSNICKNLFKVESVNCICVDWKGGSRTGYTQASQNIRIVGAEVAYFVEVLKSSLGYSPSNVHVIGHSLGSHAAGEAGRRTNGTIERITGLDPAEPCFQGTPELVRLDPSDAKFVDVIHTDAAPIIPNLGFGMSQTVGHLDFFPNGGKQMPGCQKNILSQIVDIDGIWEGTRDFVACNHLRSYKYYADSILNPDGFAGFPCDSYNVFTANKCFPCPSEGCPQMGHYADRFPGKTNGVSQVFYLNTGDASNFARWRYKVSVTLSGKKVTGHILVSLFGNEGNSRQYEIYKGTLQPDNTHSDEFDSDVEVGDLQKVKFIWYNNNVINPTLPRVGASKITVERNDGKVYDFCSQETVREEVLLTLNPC
Description: 2.1 Preparation of light absorbance working curve for fatty acid: a series of oleic acid-toluene solutions with different concentrations (0-3.5 mmol/L, separately being 0, 0.225, 0.45, 0.675, 0.9, 1.125, 1.35, 1.8, 2.25, 2.7, and 3.5 mmol/L), 4 mL of each was taken and placed in conical flask, added with 1 mL of color developing agent, stirred with magnetic force for 3 minutes, oleic acid molecules and copper ions formed a green complex compound, after centrifugation, organic phase of upper layer was taken and measured at 714 nm to determine light absorbance.
2.2 Enzyme solution was 0.5 mg/mL pancreatic lipase solution; buffer solution was 0.07M NaH2PO4—K2HPO4 phosphate buffer solution (pH 7.0); color developing agent was 5% copper acetate solution, which was regulated with pyridine to have pH 6.1.
3 mL of 0.07M phosphate buffer solution and 1 mL of olive oil were pre-heated at a constant temperature of 37° C. for 5 minutes in water bath under agitation with a magnetic stirrer, added with 1.3 mL of enzyme solution (negative control was that without enzyme inhibitor; positive control is that added with 100 μL of 0.1 mg/mL orlistat solution; […]), stirred with magnetic force for 10 minutes, immediately added with 8 mL of toluene, stirred continuously for 2 minutes, the reaction was terminated, the generated oleic acid was extracted. The solutions were transferred to centrifuge tube, centrifuged under 4000 rpm for 10 minutes, and the organic phase and water phase were layered and clarified. 4 mL of the upper layer organic phase was taken and placed in a small conical flask, added with 1 mL of color developing agent, stirred with magnetic stirrer for 3 minutes, the generated oleic acid reacted with copper ions to form green complex compound. After centrifugation under 4000 rpm for 10 minutes, the upper layer of toluene solution containing copper oleate was taken, and measured with a spectrophotometer at 714 nm to determine its light absorbance. A blank solution without lipase was prepared as control by the same method, and concentration of fatty acid could be determined by referring to light absorbance working curve of oleic acid.
Enzyme activity unit of lipase was defined as follows: an enzyme amount to release 1 μmol fatty acid under certain condition was defined as 1 unit of lipase activity (U).
The following formula was used to calculate enzyme activity: X=(cV)/(tV′)
wherein: X represents enzyme activity of lipase, U/mL; c represents concentration of fatty acid, […]; V represents volume of fatty acid solution, mL; V′ represents amount of enzyme solution, mL; t represents action time, minute. Inhibition rate=[(enzyme activity of lipase−enzyme activity of lipase after inhibition)/enzyme activity of lipase]×100%

| Inhibition rate [1] [%] | Slope (rate of decline of OD340) ([1]; blank control slope 16.0) | SMILES | Absorbance ([2]; 714 nm, blank control 0.6680) | Inhibition rate [2] [%] | Enzyme activity ([2]; blank control 1.69) [U/mL] | Concentration of generated oleic acid ([2]; blank control 2.75) [mM] |
| --- | --- | --- | --- | --- | --- | --- |
| 54.4 | 7.3 | CC[C@H](C)C(=O)O[C@H]1C[C@@H](C)C=C2C=C[C@H](C)[C@H](CC[C@@H]3C[C@@H](O)CC(=O)O3)[C@H]21 [Lovastatin, lovastatin, reference compound] |  |  |  |  |
|  |  | CCCCCCCCCCC[C@@H](C[C@@H]1OC(=O)[C@H]1CCCCCC)OC(=O)[C@H](CC(C)C)NC=O [Orlistat, orlistat, reference compound] | 0.2042 | 69.84 | 0.50 | 0.81 |
